Assay results published in patent publication US10538555B2, “Macrocyclic inhibitors of the PD-1/PD-L1 and CD80(B7-1)/PD-L1 protein/protein interactions” (BRISTOL-MYERS SQUIBB COMPANY, priority 2014, dated 2020).
*1 amine or outer side, *2 acyl side, *3 side chain or, on linkers, in order; H or OH if unused. Where a SMILES comes first, the peptide text is derived from it. Bridges are numbered along the chain shown (N, C = ends). [ ]: non-standard residue; d: D form. ξ: configuration not given here. Trp(1-CH2COOH) = N[C@@H](Cc1cn(CC(=O)O)c2ccccc12)C(=O)O; Phe(3,4,5-F3) = N[C@@H](Cc1cc(F)c(F)c(F)c1)C(=O)O; Phe(3,4-F2) = N[C@@H](Cc1ccc(F)c(F)c1)C(=O)O; NMePhe(4-F) = CN[C@@H](Cc1ccc(F)cc1)C(=O)O; X8 = O=C([C@H](CC1CNc2ccccc21)N[*:1])[*:2]; Phe(4-F) = N[C@@H](Cc1ccc(F)cc1)C(=O)O; d(cisHyp) = O=C(O)[C@H]1C[C@@H](O)CN1; Hyp = O=C(O)[C@@H]1C[C@@H](O)CN1; NMeF = CN[C@@H](Cc1ccccc1)C(=O)O; X1 = O=C([C@H]1COCCN1[*:1])[*:2]; dNMeF = CN[C@H](Cc1ccccc1)C(=O)O; dHyp = O=C(O)[C@H]1C[C@H](O)CN1; NMeL = CN[C@@H](CC(C)C)C(=O)O; NMehSer = CN[C@@H](CCO)C(=O)O; NMeNle = CCCC[C@H](NC)C(=O)O; Pip = O=C(O)[C@@H]1CCCCN1; dPip = O=C(O)[C@H]1CCCCN1; hSer = N[C@@H](CCO)C(=O)O; NMeA = CN[C@@H](C)C(=O)O; Orn = NCCC[C@H](N)C(=O)O; dNMeA = CN[C@H](C)C(=O)O; Dab = NCC[C@H](N)C(=O)O; Dap = NC[C@H](N)C(=O)O; ξC = NC(CS)C(=O)O; Sar = CNCC(=O)O

Biological target: T1, Human PD-L1/PD-1 (Homo sapiens, UniProt Q9NZQ7)
T1 construct: TVMV protease cleavage site (C); made in house; host or cells: HEK293T cells
T1 sequence (Q9NZQ7 with tags, fused parts or gaps): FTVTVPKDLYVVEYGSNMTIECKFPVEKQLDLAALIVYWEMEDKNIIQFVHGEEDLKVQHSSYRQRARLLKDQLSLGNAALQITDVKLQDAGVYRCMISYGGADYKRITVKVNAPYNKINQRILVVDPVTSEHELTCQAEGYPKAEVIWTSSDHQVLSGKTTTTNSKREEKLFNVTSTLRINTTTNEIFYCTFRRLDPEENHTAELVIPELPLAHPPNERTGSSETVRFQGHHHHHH
Test: HTRF Human PD-L1/PD-1 binding assay (PD-1-Ig/PD-L1-His)
Details: PD-L1-His 10 nM, PD-1-Ig 20 nM; class symbol; read-out: HTRF Human PD-L1/PD-1 Binding Assay IC50 Range
In short: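 Inhibitors were preincubated 15 min with human PD-L1(18-239)-His (10 nM final), then PD-1(25-167)-Ig (20 nM final) was added for 15 min in dPBS/0.1% BSA/0.05% Tween-20. Eu-cryptate anti-Ig (1 nM) and APC anti-His (20 nM) were added; 665/620 nm ratio read after 30 min.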

| SMILES | IC50 |
| --- | --- |
| CCCC[C@H]1C(=O)N(C)[C@@H](CCCC)C(=O)N[C@@H](CC(C)C)C(=O)N[C@H](C(=O)NCC(N)=O)CSCC(=O)N[C@@H](Cc2ccc(O)cc2)C(=O)N(C)[C@@H](C)C(=O)N[C@@H](CC(N)=O)C(=O)N2CCC[C@H]2C(=O)N[C@@H](CN)C(=O)N[C@@H](CCC(=O)O)C(=O)N2C[C@H](O)C[C@H]2C(=O)N[C@@H](Cc2c[nH]c3ccccc23)C(=O)N[C@@H](CCN)C(=O)N[C@@H](Cc2cn(CC(=O)O)c3ccccc23)C(=O)N1C [Example 6146] ({CH2CO}-Y[NMeA]NP[Dap]E[Hyp]W[Dab][Trp(1-CH2COOH)][NMeNle][NMeNle]LCG-NH2; thioether N-14) | 1 to 9.9 nM |
| CCCC[C@H]1C(=O)N(C)[C@@H](CCCC)C(=O)N[C@@H](CCC(=O)O)C(=O)N[C@H](C(=O)NCC(N)=O)CSCC(=O)N[C@@H](Cc2ccc(O)cc2)C(=O)N(C)[C@@H](C)C(=O)N[C@@H](CC(=O)O)C(=O)N2CCC[C@H]2C(=O)N[C@@H](CO)C(=O)N[C@@H](CC(C)C)C(=O)N2C[C@H](O)C[C@H]2C(=O)N[C@@H](Cc2c[nH]c3ccccc23)C(=O)N[C@@H](CO)C(=O)N[C@@H](CC2CNc3ccccc32)C(=O)N1C (stereo partly drawn) [Example 5184] ({CH2CO}-Y[NMeA]DPSL[Hyp]WS[X8][NMeNle][NMeNle]ECG-NH2; thioether N-14) | 10 to 99.9 nM |
| CCCC[C@H]1C(=O)N(C)[C@@H](CCOC)C(=O)N[C@@H](CCC(=O)O)C(=O)N[C@H](C(=O)NCC(N)=O)CSCC(=O)N[C@@H](Cc2ccc(O)cc2)C(=O)N(C)[C@@H](C)C(=O)N[C@@H](CC(N)=O)C(=O)N2CCC[C@H]2C(=O)N[C@@H](Cc2c[nH]cn2)C(=O)N[C@@H](CCC(N)=O)C(=O)N2C[C@H](O)C[C@H]2C(=O)N[C@@H](Cc2c[nH]c3ccccc23)C(=O)N[C@@H](CO)C(=O)N[C@@H](Cc2c[nH]c3ccccc23)C(=O)N1C [Example 10147] ({CH2CO}-Y[NMeA]NPHQ[Hyp]WSW[NMeNle][NMehSer](Me)ECG-NH2; thioether N-14) | 1 to 9.9 nM |
| CCCC[C@H]1C(=O)N(C)[C@@H](CCCC)C(=O)N[C@@H](CC(C)C)C(=O)N[C@H](C(=O)NCC(N)=O)CSCC(=O)N[C@@H](Cc2ccc(O)cc2)C(=O)N2CCCC[C@H]2C(=O)N[C@@H](CC(=O)O)C(=O)N2CCC[C@H]2C(=O)N[C@@H](Cc2cnc[nH]2)C(=O)N[C@@H](CCC(N)=O)C(=O)N2C[C@H](O)C[C@H]2C(=O)N[C@@H](Cc2c[nH]c3ccccc23)C(=O)N[C@@H](CO)C(=O)N[C@@H](Cc2cn(CC(=O)O)c3ccccc23)C(=O)N1C [Example 1293] ({CH2CO}-Y[Pip]DPHQ[Hyp]WS[Trp(1-CH2COOH)][NMeNle][NMeNle]LCG-NH2; thioether N-14) | 10 to 99.9 nM |
| CCCC[C@H]1C(=O)N(C)[C@@H](CCCC)C(=O)N[C@@H](CN)C(=O)N[C@H](C(=O)NCC(N)=O)CSCC(=O)N[C@@H](Cc2ccc(O)cc2)C(=O)N2CCCC[C@H]2C(=O)N[C@@H](CC(N)=O)C(=O)N2CCC[C@H]2C(=O)N[C@@H](CN)C(=O)N[C@@H](CCC(=O)O)C(=O)N2C[C@H](O)C[C@H]2C(=O)N[C@@H](Cc2c[nH]c3ccccc23)C(=O)N[C@@H](CCN)C(=O)N[C@@H](Cc2cn(CC(=O)O)c3ccccc23)C(=O)N1C [Example 1295] ({CH2CO}-Y[Pip]NP[Dap]E[Hyp]W[Dab][Trp(1-CH2COOH)][NMeNle][NMeNle][Dap]CG-NH2; thioether N-14) | 10 to 99.9 nM |
| CCCC[C@H]1C(=O)N(C)[C@@H](CCCC)C(=O)N[C@@H](C)C(=O)N[C@H](C(=O)NCC(N)=O)CSCC(=O)NC(Cc2ccc(O)cc2)C(=O)N2CCCC[C@H]2C(=O)N[C@@H](CC(N)=O)C(=O)N2CCC[C@H]2C(=O)N[C@@H](Cc2c[nH]cn2)C(=O)N[C@@H](CC(C)C)C(=O)N2C[C@H](O)C[C@H]2C(=O)N[C@@H](Cc2c[nH]c3ccccc23)C(=O)N[C@@H](CO)C(=O)N[C@@H](Cc2c[nH]c3ccccc23)C(=O)N1C (stereo partly drawn) [Example 1251] | 1 to 9.9 nM |
| CCCC[C@H]1C(=O)N[C@@H](CC(N)=O)C(=O)N2CCC[C@H]2C(=O)N[C@@H](CO)C(=O)N[C@@H](CCO)C(=O)N2C[C@H](O)C[C@H]2C(=O)N[C@@H](Cc2c[nH]c3ccccc23)C(=O)N[C@@H](CN)C(=O)N[C@@H](Cc2c[nH]c3ccccc23)C(=O)N(C)[C@@H](C)C(=O)N(C)CC(=O)N[C@@H](CCCNC(=N)N)C(=O)NC(C(=O)NCC(N)=O)CSCC(=O)N[C@@H](Cc2ccc(O)cc2)C(=O)N1C (stereo partly drawn) [Example 10205] ({CH2CO}-Y[NMeNle]NPS[hSer][Hyp]W[Dap]W[NMeA][Sar]R[ξC]G-NH2; thioether N-14) | 1000 to 10000 nM |
| CCCC[C@H]1C(=O)N(C)[C@@H](CCCC)C(=O)N[C@@H](CCC(=O)O)C(=O)N[C@H](C(=O)NCC(N)=O)CSCC(=O)N[C@@H](Cc2ccc(O)cc2)C(=O)N(C)[C@@H](C)C(=O)N[C@@H](CC(=O)O)C(=O)N2CCC[C@H]2C(=O)N[C@@H](CO)C(=O)N[C@@H](CC(C)C)C(=O)N2C[C@H](O)C[C@H]2C(=O)N[C@@H](Cc2c[nH]c3ccccc23)C(=O)N[C@@H](CCC(=O)O)C(=O)N[C@@H](Cc2c[nH]c3ccccc23)C(=O)N1C [Example 5254] ({CH2CO}-Y[NMeA]DPSL[Hyp]WEW[NMeNle][NMeNle]ECG-NH2; thioether N-14) | 10 to 99.9 nM |

Further lines, results first:

| IC50 | SMILES |
| --- | --- |
| 1 to 9.9 nM | CC(C)[C@@H]1NC(=O)[C@H](CC(N)=O)NC(=O)[C@@H](C)N(C)C(=O)[C@H](C)N(C)C(=O)[C@H](Cc2ccccc2)N(C)C(=O)[C@H](Cc2cc(F)c(F)c(F)c2)NC(=O)CSC[C@@H](C(=O)NCC(N)=O)NC(=O)[C@H](CCCN)NC(=O)[C@H](Cc2ccc(O)cc2)NC(=O)[C@H](Cc2c[nH]c3ccccc23)NC(=O)[C@@H](C)N(C)C(=O)[C@H](Cc2ccc(O)cc2)NC(=O)[C@H](Cc2ccccc2)N(C)C1=O [Example 9195] ({CH2CO}-[Phe(3,4,5-F3)][NMeF][NMeA][dNMeA]NV[NMeF]Y[dNMeA]WY[Orn]CG-NH2; thioether N-13) |
| 1 to 9.9 nM | CCCC[C@H]1C(=O)N2C[C@@H](O)C[C@@H]2C(=O)N[C@@H](CC(=O)O)C(=O)N[C@@H](C(C)C)C(=O)N(C)[C@@H](Cc2ccccc2)C(=O)N[C@@H](Cc2ccc(O)cc2)C(=O)N2C[C@@H](O)C[C@@H]2C(=O)N[C@@H](Cc2c[nH]c3ccccc23)C(=O)N[C@@H](Cc2ccc(O)cc2)C(=O)N[C@@H](CCCN)C(=O)N[C@H](C(=O)NCC(N)=O)CSCC(=O)N[C@@H](Cc2ccc(F)c(F)c2)C(=O)N(C)[C@@H](Cc2ccccc2)C(=O)N1C [Example 9231] ({CH2CO}-[Phe(3,4-F2)][NMeF][NMeNle][dHyp]DV[NMeF]Y[dHyp]WY[Orn]CG-NH2; thioether N-13) |
| 1 to 9.9 nM | CCCC[C@H]1C(=O)N2CCC[C@@H]2C(=O)N[C@@H](CC(=O)O)C(=O)N[C@@H](C(C)C)C(=O)N(C)[C@@H](Cc2ccccc2)C(=O)N[C@@H](CCC(=O)O)C(=O)N2C[C@H](O)C[C@@H]2C(=O)N[C@@H](Cc2c[nH]c3ccccc23)C(=O)N[C@@H](Cc2ccc(O)cc2)C(=O)N[C@@H](CCOC)C(=O)N[C@H](C(=O)NCC(N)=O)CSCC(=O)N[C@@H](Cc2cc(F)c(F)c(F)c2)C(=O)N(C)[C@@H](Cc2ccccc2)C(=O)N1C [Example 10188] ({CH2CO}-[Phe(3,4,5-F3)][NMeF][NMeNle][dP]DV[NMeF]E[d(cisHyp)]WY[hSer](Me)CG-NH2; thioether N-13) |
| 1 to 9.9 nM | CCCC[C@H]1C(=O)N2C[C@H](O)C[C@@H]2C(=O)N[C@@H](CC(=O)O)C(=O)N[C@@H](C(C)C)C(=O)N(C)[C@@H](Cc2ccccc2)C(=O)N[C@@H](CCC(=O)O)C(=O)N2CCOC[C@@H]2C(=O)N[C@@H](Cc2c[nH]c3ccccc23)C(=O)N[C@@H](Cc2ccc(O)cc2)C(=O)N[C@@H](CCCCN)C(=O)N[C@H](C(=O)NCC(N)=O)CSCC(=O)N[C@@H](Cc2cc(F)c(F)c(F)c2)C(=O)N(C)[C@@H](Cc2ccc(F)cc2)C(=O)N1C [Example 10592] ({CH2CO}-[Phe(3,4,5-F3)][NMePhe(4-F)][NMeNle][d(cisHyp)]DV[NMeF]E[X1]WYKCG-NH2; thioether N-13) |
| 1 to 9.9 nM | COCC[C@H]1C(=O)N2C[C@@H](O)C[C@@H]2C(=O)N[C@@H](CC(=O)O)C(=O)N[C@@H](C(C)C)C(=O)N(C)[C@H](Cc2ccccc2)C(=O)N[C@@H](Cc2ccc(O)cc2)C(=O)N2C[C@@H](O)C[C@@H]2C(=O)N[C@@H](Cc2c[nH]c3ccccc23)C(=O)N[C@@H](Cc2ccc(O)cc2)C(=O)N[C@@H](CCCN)C(=O)N[C@H](C(=O)NCC(N)=O)CSCC(=O)N[C@@H](Cc2ccc(F)c(F)c2)C(=O)N(C)[C@@H](Cc2ccccc2)C(=O)N1C [Example 9238] ({CH2CO}-[Phe(3,4-F2)][NMeF][NMehSer](Me)[dHyp]DV[dNMeF]Y[dHyp]WY[Orn]CG-NH2; thioether N-13) |
| 1000 to 10000 nM | CCCC[C@H]1C(=O)N2CCC[C@@H]2C(=O)N[C@@H](CC(=O)O)C(=O)N[C@@H](C(C)C)C(=O)N(C)[C@@H](CC(C)C)C(=O)N[C@@H](CCC(N)=O)C(=O)N2CCCC[C@@H]2C(=O)N[C@@H](Cc2c[nH]c3ccccc23)C(=O)N[C@@H](Cc2ccc(O)cc2)C(=O)N[C@@H](CCCN)C(=O)N[C@H](C(=O)NCC(N)=O)CSCC(=O)N[C@@H](Cc2ccc(F)cc2)C(=O)N(C)[C@@H](Cc2ccccc2)C(=O)N1C [Example 9256] ({CH2CO}-[Phe(4-F)][NMeF][NMeNle][dP]DV[NMeL]Q[dPip]WY[Orn]CG-NH2; thioether N-13) |
| 1 to 9.9 nM | CCCC[C@H]1C(=O)N2CCC[C@@H]2C(=O)N[C@@H](CC(=O)O)C(=O)N[C@@H](C(C)C)C(=O)N(C)[C@@H](Cc2ccccc2)C(=O)N[C@@H](CCC(=O)O)C(=O)N2CCC[C@@H]2C(=O)N[C@@H](Cc2c[nH]c3ccccc23)C(=O)N[C@@H](Cc2ccc(O)cc2)C(=O)N[C@@H](CC(C)C)C(=O)N[C@H](C(=O)NCC(N)=O)CSCC(=O)N[C@@H](Cc2ccc(F)cc2)C(=O)N(C)[C@@H](Cc2ccccc2)C(=O)N1C [Example 10107] ({CH2CO}-[Phe(4-F)][NMeF][NMeNle][dP]DV[NMeF]E[dP]WYLCG-NH2; thioether N-13) |
